The text below walks through data of patent publication US20220082578A1, “METHOD OF Q[…]'S MAIN METABOLITES, PSILOCIN AND 4-HYDROXYINDOLE-3-ACETIC ACID, IN HUMAN PLASMA” (Universitätsspital Basel, priority 2020, published 2022).

Data set [1] is described as follows: Stability of psilocin and 4-HIAA in plasma under different storage conditions. The format is physicochemical. The note with it: human plasma, frozen at −20° C., thawed at room temperature. Here is the method: The stability of psilocin and 4-HIAA in plasma were investigated under different storage conditions. Seven replicates of LLOQ, QCLOW, QCMID, and QCHIGH samples were stored for 8 hours at room temperature (bench-top stability) and for 1 month at −20° C. (one-month stability). Moreover, the stability was assessed after three consecutive freeze and thaw cycles (freeze/thaw stability), thereby freezing the QC samples at −20° C. for at least 24 hours and thawing them afterwards at room temperature. The concentration of those stability test samples was calculated based on a freshly prepared calibration line. Samples were designated to be stable if the accuracy was between 85-115% (LLOQ: 80-120%) and the precision ≤15% (LLOQ: ≤20%).

Data set [2] in a line: Pharmacokinetics of psilocin and 4-HIAA in plasma of healthy volunteers after a single oral dose of 25 mg psilocybin (LC-MS/MS). Type of data set: in vivo, human. The note with it: for Cmax / Tmax / AUC(0-t) / half-life: human; for Cmax / Tmax: po, 25 mg; for AUCLAST relative to AUCLAST of psilocin: 0-420 min. Here is the method: To examine the application of the developed method, psilocin and 4-HIAA concentrations were quantified in plasma samples of three healthy volunteers receiving a single oral dose of 25 mg psilocybin. This is a moderate to high dose currently used in clinical phase 2-3 studies. The study was approved by the Ethical Committee of Northwestern and Central Switzerland (EKNZ, BASEC ID: 2019-00223), registered at ClinicalTrials.gov (ID: NCT03912974), and conducted in accordance with the Declaration of Helsinki and International Conference on Harmonization Guidelines in Good Clinical Practice. All volunteers provided written informed consent prior to study participation.
To establish concentration time profiles, blood samples were collected in lithium heparin coated tubes at the following time points: 2 hours before and 0, 15, 30, 45, 60, 90, 120, 150, 180, 240, 300, 360, and 420 minutes after treatment. Blood samples were centrifuged for 10 minutes at 3000 rpm to obtain plasma, which was transferred into cryotubes. All samples were stored −80° C. until analysis.
Study, calibration, and QC samples were processed as described before. In addition, the total amount of glucuronide conjugated psilocin and 4-HIAA was determined similar to the protocol of Kamata et al. (2006). In brief, 5 μl of Escherichia coli deglucuronidase (3000 units/ml in water) was mixed with 50 μl plasma sample. An aliquot of 100 μl acetic acid buffer (0.1 M) was added to the mixture. The samples were incubated for 3 hours at 37° C. in a thermomixer (Eppendorf, Hamburg, Germany). Enzymatic reaction was terminated, and samples extracted by the addition of 150 μl methanol. The samples were vortex mixed and centrifuged as outlined above.
For each analytical run, a calibration line was analysed at the beginning and at the end of the measurements. In between, the study samples of the three volunteers were measured as well as triplicates of LLOQ, QCLOW, QCMID, and QCHIGH samples. Samples with a concentration below the LLOQ were marked as blq (below limit of quantification) and samples with concentrations above the ULOQ were diluted with blank plasma into the calibration range.
The concentration-time profile was plotted and the maximal plasma concentration (Cmax) and time to reach it (Tmax) were obtained graphically from the plots. Pharmacokinetic parameters were calculated using non-compartmental methods in Phoenix WinNonlin 8.3 (Certara, N.J., USA). The area under the plasma concentration time profile was calculated by using the linear trapezoidal rule from 0-420 min (AUCLAST). The elimination half-life (t1/2) was calculated by the equation
where the elimination rate constant (λ) was the slope of log(C(t)) versus t determined in the terminal elimination phase.

For data set [3] the following is noted: cited from earlier work.
Setting [4] is: plasma, average of three healthy volunteers, oral 25 mg psilocybin, read-out: maximal plasma level (Cmax).
The mark [5] stands for this setting: plasma, plasma, three healthy volunteers, oral dose of 25 mg psilocybin, read-out: Cmax ± SD.
Where [6] appears, read: plasma, three healthy volunteers, oral dose of 25 mg psilocybin.
Where [7] appears, read: area under the plasma concentration time curve until 7 h post treatment, oral 25 mg psilocybin.
Where [8] appears, read: after oral administration of psilocybin.

Usually Cmax stands for the maximum level reached in the sampled fluid or tissue. One may read the Tmax as the time at which the peak concentration occurs. What is called AUC(0-t) is the area under the concentration-time curve up to a stated or last time point. Read a high AUC(0-t) as more exposure. As a reminder, the half-life is the time needed for the level to fall by half in the phase considered.

Read-outs that look alike come from different tables or passages of the source. A value given as a limit tells only on which side of the number the result lay.

On to `O=C(O)Cc1c[nH]c2cccc(O)c12` [4-HIAA, 4-hydroxyindole-3-acetic acid], for which the “accuracy of QC samples after three freeze and thaw cycles” value in data set [1] is recorded as 100-109%. In addition, in data set [2] (setting [4]), the Cmax was determined as 137 ng/mL. Moreover, the Cmax in data set [2] (setting [5]) worked out at 137 ± 22 ng/mL. Further, in data set [2] (setting [6]), the Tmax is 2 to 2.33 h, the half-life was 139 min and the “Tmax ± SD” value turned out to be 120 ± 60 min. This compound showed an exposure AUC(0-t) in data set [2] (setting [7]) of 372 ng·h/mL. In data set [2] (oral 25 mg psilocybin), the “AUCLAST relative to AUCLAST of psilocin” value was “about 5 fold”.

With `OCCc1c[nH]c2cccc(O)c12` [4-HTP, 4-hydroxytryptophol], the “plasma concentration (not detectable at limit of detection)” value in data set [2] (plasma of volunteers who received 25 mg psilocybin) was < 2.5 ng/mL.

In data set [2] (setting [7]), `CN(C)CCc1c[nH]c2cccc(O[C@@H]3O[C@H](C(=O)O)[C@@H](O)[C@H](O)[C@H]3O)c12` [psilocin-glucuronide, psilocin-O-glucuronide] yielded an AUClast of 20631 ng·min/mL. In addition, the “maximal plasma level (Cmax)” value in data set [2] (average of three healthy volunteers, oral 25 mg psilocybin) came to 78.3 ng/mL. Also, the “AUCLAST relative to AUCLAST of psilocin” value in data set [2] (oral 25 mg psilocybin) is 5-6 fold. Also, in data set [2] (setting [6]), the “Tmax ± SD” value is listed as “roughly 220 min” and the t1/2 was determined as 215 ± 72 min. Also, the “Tmax ± SD” value in data set [2] (plasma, three healthy volunteers, oral dose of 25 mg psilocybin, listed as Psilocin-glucuronide) is 220 ± 92 min.

With `CN(C)CCc1c[nH]c2cccc(O)c12` [psilocin], in data set [3] (setting [8]), the elimination half-life is 2 to 3 h, the “peak concentrations in plasma” value is 10 to 40 ng/mL and the “time to peak plasma concentration” value is 1.5 to 2 h. Besides, in data set [3] (in vivo), the “fraction excreted from body as psilocin-O-glucuronide” value is listed as 80%. For the same compound, the “accuracy of QC samples after three freeze and thaw cycles” value in data set [1] is given as 105-108%. For the same compound, the Cmax in data set [2] (setting [4]) was 19.2 ng/mL. Also, in data set [2] (setting [5]), the highest concentration (Cmax) stood at 19.2 ± 4 ng/mL. In data set [2] (setting [6]), the Tmax lay within 2 to 2.33 h, the half-life was determined as 127 min and the “Tmax ± SD” value was found to be 140 ± 46 min. This compound showed an AUC(0-t) in data set [2] (setting [7]) of 61.2 ng·h/mL. Further, in data set [2] (samples reanalysed after deglucuronidation with Escherichia coli glucuronidase), the “glucuronide conjugation in plasma” value is listed as “underwent extensive 0-glucuronidation”.
